# Experimental data reported in patent US6900200B2, “Tricyclic hydroxy carboxamides and derivatives thereof tocolytic oxytocin receptor antagonists” (Wyeth, priority 2001, dated 2005).
# Biological target: T1, human vasopressin V1a receptor subtype (Homo sapiens, UniProt P37288)
# T1 construct: host or cells: CHO cells; pZeoSV vector for the Thibonnier line
# Test: Vasopressin binding in CHO cell membranes expressing human vasopressin V1a subtype receptors ([3H]Manning ligand radioligand binding)
# Conditions: @ 100 nM
# Excerpt: Vasopressin Binding in Chinese Hamster Ovary Cell Membranes Expressing Human Vasopressin V1a Subtype Receptors
# Chinese hamster ovary cells (CHO cells) stably transfected with the human vasopressin V1a subtype receptors were either obtained from BioSignal Inc., 1744 rue Williams, Montreal, Quebec, Canada or obtained from M. Thibonnier, Case Western Reserve University School of Medicine, Cleveland, Ohio.
# A. Passaging and Amplification of Cells
# CHO cells transfected with the human vasopressin V1a subtype receptors obtained from M. Thibonnier (pZeoSV vector) are allowed to grow to confluency (approx. >90%) in T-150 flasks under sterile conditions, in a cell culture medium of F-12 Nutrient Mixture (HAM) with L-glutamine (Gibco Cat. #11765-054) containing 15 mM HEPES (Gibco Cat. #15630-080), 1% antibiotic/antimycotic (add 5 mL 100×, Gibco Cat. #15240-062 per 500 mL F-12), 250 μg/mL Zeocin (add 1.25 mL of 100 mg/mL Invitrogen R-250-01 per 500 mL F-12) and 10% Fetal Bovine Serum (Qualified, heat inactivated, Gibco Cat. #16140-063). The medium is removed by aspiration and the cells are washed with 10 mL of Hank's Balanced Salt solution (Gibco Cat. #14175-095). The salt solution is removed by aspiration and the cells are trypsinized with 5 mL of trypsin-EDTA (0.05% trypsin, 0.53 mM EDTA-4Na, Gibco Cat. #25300-070) for 1 min. The trypsin is removed by aspiration and the cells dislodged by tapping. Cell Culture medium (e.g. 30 mL for 1:30 split) is immediately added and mixed well to inactivate trypsin. 1 mL of detached cells is added to new culture flasks containing fresh cell culture medium (e.g., into 25 mL per T-150 flask), and mixed gently. The cells are incubated at 37° C. in 5% CO2. The medium is changed at 3 to 4 days interval (or as appropriate). The cells grow to confluency (approx. >75%-95%) within 7-8 days. All steps are done under sterile conditions.
# The cells are washed twice gently with Hank's Balanced Salt solution (e.g,. use 10 mL per T-150 flask). The excess is removed and the cells are bathed for 15-30 min. in an enzyme-free Cell Dissociation Buffer (e.g. use 8 mL Hank's Based, Gibco Cat. #13150-016 per T-150 flask) until the cells are loosened. The contents are transferred to centrifuge tubes (50 mL) kept in an ice bath. All subsequent steps are done at 4° C. The tubes are centrifuged at 300×g for 15 min (1380 rpm on SORVAL, Model RT6000D, using the rotor for 50 mL tubes). The supernatant is discarded and the cells suspended in homogenizing buffer(10 mM Tris-HCl containing 0.25 M sucrose and 1 mM EDTA, pH 7.4) ensuring that the volume of the buffer is about ten times the volume of the cell pellet. The cells are pooled into a centrifuge tube (50 mL) and homogenized with Polytron at setting 6 for 10 sec. The homogenate is transferred into a Potter-Elvjehm homogenizer and homogenized with 3 strokes. The homogenate is centrifuged at 1500×g for 10 min at 4° C. (3100 rpm using SORVAL, model RT6000D, using the rotor for 50 mL tubes). The pellet is discarded. The supernatant is centrifuged at 100,000×g for 60 min. at 4° C. (Beckman L8-80M ultracentrifuge; spin at 37,500 rpm with rotor type 70 Ti for 50 mL tubes; 38,000 rpm with type 80Ti for 15 mL tubes; or 35,800 rpm with rotor type 45Ti). The supernantant is discarded and the pellet suspended in 3 to 4 mL of Tris buffer (50 mM TRIS—HCl, pH 7.4). The protein content is estimated by the Bradford or Lowry method. The volume of the membrane suspension is adjusted with the membrane buffer (50 mM Tris-HCl containing 0.1% BSA and 0.1 mM PMSF) to give 3.0 mg/mL (or as appropriate) of protein. The membranes are aliquoted and stored at −70° C.
# C. Radioligand Binding Assay […]
# T1 sequence (P37288 whole entry): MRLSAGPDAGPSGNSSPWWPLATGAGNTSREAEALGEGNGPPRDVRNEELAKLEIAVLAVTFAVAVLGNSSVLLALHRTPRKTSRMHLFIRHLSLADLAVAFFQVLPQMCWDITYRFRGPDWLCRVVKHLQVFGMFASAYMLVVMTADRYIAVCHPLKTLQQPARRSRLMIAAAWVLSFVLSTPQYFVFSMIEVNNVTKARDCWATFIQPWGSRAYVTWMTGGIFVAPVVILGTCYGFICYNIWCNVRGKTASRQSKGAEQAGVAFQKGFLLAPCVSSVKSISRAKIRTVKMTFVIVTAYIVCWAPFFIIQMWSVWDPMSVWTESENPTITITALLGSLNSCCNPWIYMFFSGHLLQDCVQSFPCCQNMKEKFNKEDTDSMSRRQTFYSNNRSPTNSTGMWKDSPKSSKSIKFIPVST
row,SMILES,inhibition at 0.1 µM [%]
1,"COc1cc2c(cc1OC)N(C(=O)c1ccc(-c3ccccc3C(F)(F)F)c(C)c1)Cc1ccc(C(=O)N(C)CC(O)CO)n1C2 (stereo not drawn) [Example 18, N-(2,3-Dihydroxypropyl)-7,8-dimethoxy-N-methyl-10-{[2-methyl-2′-trifluoromethyl-[1,1′-biphenyl]-4-yl]carbonyl}-10,11-dihydro-5H-pyrrolo[2,1-c][1,4]benzodiazepine-3-carboxamide]",0
2,"COc1ccccc1-c1ccc(C(=O)N2Cc3ccc(C(=O)N4CCN(CCO)CC4)n3Cc3ccccc32)cc1OC [Example 43, {10-[(2,2′-Dimethoxy[1,1′-biphenyl]-4-yl)carbonyl]-10,11-dihydro-5H-pyrrolo[2,1-c][1,4]benzodiazepin-3-yl}[4-(2-hydroxyethyl)-1-piperazinyl]methanone]",1
3,"COc1cc(C(=O)N2Cc3ccc(C(=O)N4CCN(CCO)CC4)n3Cc3ccccc32)ccc1-n1c(C)ccc1C [Example 52, {10-[4-(2,5-Dimethyl-1H-pyrrol-1-yl)-3-methoxybenzoyl]-10,11-dihydro-5H-pyrrolo[2,1-c][1,4]benzodiazepin-3-yl}[4-(2-hydroxyethyl)-1-piperazinyl]methanone]",7
4,"COc1ccccc1-c1ccc(C(=O)N2Cc3ccc(C(=O)N(C)C[C@@H](O)CO)n3Cc3ccccc32)cc1C (single isomer, unassigned) [Example 16]",68
5,"Cc1ccccc1-c1ccc(C(=O)N2Cc3ccc(C(=O)N4CCN(CCO)CC4)n3Cc3ccccc32)cc1 [Example 45, [4-(2-Hydroxyethyl)-1-piperazinyl]{10-[(2′-methyl[1,1′-biphenyl]-4-yl)carbonyl]-10,11-dihydro-5H-pyrrolo[2,1-c][1,4]benzodiazepin-3-yl}methanone]",57
6,"COCCN1CCN(C(=O)c2ccc3n2Cc2ccccc2N(C(=O)c2ccc(-c4ccccc4C(F)(F)F)c(C)c2)C3)CC1 [Example 7, Methyl 2-{4-[(10-{[2-methyl-2′-trifluoromethyl-[1,1′-biphenyl]-4-yl]carbonyl}-10,11-dihydro-5H-pyrrolo[2,1-c][1,4]benzodiazepin-3-yl)carbonyl]piperazin-1-yl}ethyl ether]",-2
7,"Cc1cc(C(=O)N2Cc3ccc(C(=O)NC(CO)(CO)CO)n3Cc3ccccc32)ccc1-c1ccccc1C(F)(F)F [Example 3, 10-[(2-Methyl-2′-trifluoromethyl-[1,1′-biphenyl]-4-yl)carbonyl]-10,11-dihydro-5H-pyrrolo[2,1-c][1,4]benzodiazepine-3-carboxylic acid (2-hydroxy-1,1-bis-hydroxymethyl-ethyl)-amide]",7
8,"COc1cccc(-c2ccc(C(=O)N3Cc4ccc(C(=O)N5CCN(CCO)CC5)n4Cc4ccccc43)cc2OC)c1 [Example 50, {10-[(2,3′-Dimethoxy[1,1′-biphenyl]-4-yl)carbonyl]-10,11-dihydro-5H-pyrrolo[2,1-c][1,4]benzodiazepin-3-yl}[4-(2-hydroxyethyl)-1-piperazinyl]methanone]",52
9,"O=C(c1ccc2n1Cc1ccccc1N(C(=O)c1ccc(-c3cccc4ccccc34)cc1Cl)C2)N1CCN(CCO)CC1 [Example 25, 2-{4-[10-{[2-Chloro-4-(naphthalen-1-yl)phenyl]carbonyl}-(10,11-dihydro-5H-pyrrolo[2,1-c][1,4]benzodiazepin-3-yl)carbonyl]piperazine-1-yl}-1-hydroxyethane]",5

# Same assay, conditions: value printed in parentheses
row,SMILES,IC50 [nM]
1,"Cc1ccc(-c2ccc(C(=O)N3Cc4ccc(C(=O)N(C)CC(O)CO)n4Cc4ccccc43)cc2)c2ccccc12 (stereo not drawn) [Example 26, 10-{[4-(4-Methyl-naphthalen-1-yl)phenyl]carbonyl}-10,11-dihydro-5H-pyrrolo[2,1-c][1,4]benzodiazepine-3-carboxylic acid (2,3-dihydroxy-propyl)-N-methylamide]",140
2,"COC[C@@H](O)CN1CCN(C(=O)c2ccc3n2Cc2ccccc2N(C(=O)c2ccc(-c4ccccc4C(F)(F)F)c(C)c2)C3)CC1 [Example 9, [3-({4-[(2S)-2-Hydroxy-3-methoxypropyl]-1-piperazinyl}carbonyl)-5H-pyrrolo[2,1-c][1,4]benzodiazepin-10(11H)-yl][2-methyl-2′-trifluoromethyl-[1,1′-biphenyl]-4-yl]methanone]",2010
3,"COc1cc(-c2ccccc2C)c(Cl)cc1C(=O)N1Cc2ccc(C(=O)N3CCN(CCO)CC3)n2Cc2ccccc21 [Example 39, {10-[(6-Chloro-3-methoxy-2′-methyl[1,1′-biphenyl]-4-yl)carbonyl]-10,11-dihydro-5H-pyrrolo[2,1-c][1,4]benzodiazepin-3-yl}[4-(2-hydroxyethyl)-1-piperazinyl]methanone]",759
4,"COc1cc(-c2ccccc2C(F)(F)F)c(Cl)cc1C(=O)N1Cc2ccc(C(=O)N(C)C[C@H](O)[C@@H](O)[C@H](O)[C@H](O)CO)n2Cc2ccccc21 [Example 20, 10-{[6-Chloro-3-methoxy-2′-trifluoromethyl-[1,1′-biphenyl]-4-yl]carbonyl}-N-methyl-N-[(2S,3R,4R,5R)-2,3,4,5,6-pentahydroxyhexyl]-10,11-dihydro-5H-pyrrolo[2,1-c][1,4]benzodiazepine-3-carboxamide]",3100
5,"COc1cc(C(=O)N2Cc3ccc(C(=O)N(C)CC(O)CO)n3Cc3ccccc32)ccc1-c1ccccc1C(F)(F)F (stereo not drawn) [Example 21, N-(2,3-Dihydroxypropyl)-10-{[2-methoxy-2′-trifluoromethyl-[1,1′-biphenyl]-4-yl]carbonyl}-N-methyl-10,11-dihydro-5H-pyrrolo[2,1-c][1,4]benzodiazepine-3-carboxamide]",376
6,"COC[C@H](O)CN1CCN(C(=O)c2ccc3n2Cc2ccccc2N(C(=O)c2ccc(-c4ccccc4C(F)(F)F)c(C)c2)C3)CC1 [Example 8, (2R)-1-Methoxy-3-{4-[(10-{[2-methyl-2′-trifluoromethyl-[1,1′-biphenyl]-4-yl]carbonyl}-10,11-dihydro-5H-pyrrolo[2,1-c][1,4]benzodiazepin-3-yl)carbonyl]piperazin-1-yl}propan-2-ol]",1970
7,"COc1ccccc1-c1ccc(C(=O)N2Cc3ccc(C(=O)N(C)C[C@H](O)[C@@H](O)[C@H](O)[C@H](O)CO)n3Cc3ccccc32)cc1C [Example 17, 10-[(2′-Methoxy-2-methyl-[1,1′-biphenyl]-4-yl)carbonyl]-10,11-dihydro-5H-pyrrolo[2,1-c][1,4]benzodiazepine-3-carboxylic acid methyl-[(2S,3R,4R, 5R)-2,3,4,5,6-pentahydroxy-hexyl)-amide]",227
8,"COCC(CN(C)C(=O)c1ccc2n1Cc1ccccc1N(C(=O)c1ccc(-c3ccccc3C(F)(F)F)c(C)c1)C2)OC (stereo not drawn) [Example 10, N-(2,3-Dimethoxypropyl)-N-methyl-10-{[2-methyl-2′-trifluoromethyl-[1,1′-biphenyl]-4-yl]carbonyl}-10,11-dihydro-5H-pyrrolo[2,1-c][1,4]benzodiazepine-3-carboxamide]",1800
9,"Cc1cc(C(=O)N2Cc3ccc(C(=O)N4CCN(C[C@H](O)CO)CC4)n3Cc3ccccc32)ccc1-c1ccccc1C(F)(F)F [Example 5, (2S)-3-{4-[(10-{[2-Methyl-2′-trifluoromethyl-[1,1′-biphenyl]-4-yl]carbonyl}-10,11-dihydro-5H-pyrrolo[2,1-c][1,4]benzodiazepin-3-yl)carbonyl]piperazin-1-yl}propane-1,2-diol]",2720
